Test results taken from patent US8987195B2 (priority 2012, dated 2015).
Where two headings read alike, the source gives them in different places.

What was measured:
[1] = system: HCV genotype 1b replicon; assay: HCV replicon assay, genotype 1b replicon EC50; type: cell-based, Hepatitis C virus; conditions: Hepatitis C virus, read-out: EC50 [gt-1b]
In short: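 Stable neomycin-selected genotype 1b replicon cells, some carrying luciferase:Neo^r fusion, plated without G418 with a compound dilution series and incubated 24-48 h. Read-out was RNA (^32P-probe protection or TaqMan, normalized to cyclophilin A) or luciferase activity. EC50 from four-parameter fit as percent of DMSO control.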

[2] = target: HCV NS3/4A protease genotype 1b (Hepatitis C virus genotype 1b, UniProt P26663); assay: HCV NS3/4A protease time-resolved fluorescence (TRF) assay, Ki against genotype 1b; type: biochemical
In short: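 Enzyme was pre-incubated 30 min with inhibitor in HEPES pH 7.5 buffer (150 mM NaCl, 15% glycerol, 10 mM DTT). Reaction ran 2.5 h at room temperature with 25 nM europium TRF peptide substrate, read at ex 340/em 615 nm. Enzyme levels: 0.2 nM (1b), 0.4 nM (A156T), 0.025 nM (3a). Ki came from four-parameter IC50 via IC50=Ki(1+[S]/KM).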

[3] = IC50 [gt-1b] (nM), NS3/4A genotype 1b, enzyme 0.2 nM
[4] = HCV replicon, genotype 1b, K+ salt
[5] = IC50 [gt-1b], NS3/4A protease TRF assay, genotype 1b enzyme 0.2 nM, K+ salt
[6] = IC50 [gt-1b], NS3/4A protease TRF assay, genotype 1b enzyme 0.2 nM

SMILES: CC1(S(=O)(=O)NC(=O)[C@@]23C[C@H]2/C=C\CCCCC[C@H](NC(=O)OC2CCCC2)C(=O)N2C[C@@]4(CCc5c(c(C6CC6)nc6ccc7c(c56)OCO7)O4)C[C@H]2C(=O)N3)CC1 [Example 323, cyclopentyl [(2R,6S,12Z,13aS,14aR,16aS)-7′-cyclopropyl-14a-{[(1-methylcyclopropyl)sulfonyl]carbamoyl}-5,16-dioxo-1,5,6,7,8,9,10,10′,11,11′,13a,14,14a,15,16,16a-hexadecahydrospiro[cyclopropa[e]pyrrolo[1,2-a][1,4]diazacyclopentadecine-2,9′-[1,3]dioxolo[4,5-f]pyrano[2,3-c]quinolin]-6-yl]carbamate]
- EC50 ([1]; genotype 1b replicon): 11.4 nM
- IC50 [2, 3]: 0.012 nM

SMILES: CC[C@@H](C)OC(=O)N[C@H]1CCCCC/C=C\[C@@H]2C[C@@]2(C(=O)NS(=O)(=O)C2(C)CC2)NC(=O)[C@@H]2C[C@]3(CCc4c(c(C(F)F)nc5ccc(OC)cc45)O3)CN2C1=O [Example 445, (2R)-butan-2-yl [(2R,6S,12Z,13aS,14aR,16aS)-5′-(difluoromethyl)-9′-methoxy-14a-{[(1-methylcyclopropyl)sulfonyl]carbamoyl}-5,16-dioxo-1,1′,2′,5,6,7,8,9,10,11,13a,14,14a,15,16,16a-hexadecahydrospiro[cyclopropa[e]pyrrolo[1,2-a][1,4]diazacyclopentadecine-2,3′-pyrano[2,3-c]quinolin]-6-yl]carbamate]
- EC50 [1, 4]: 1.14 nM
- IC50 [2, 5]: 0.014 nM

SMILES: COc1ccc2nc(C(C)C)c3c(c2c1)CC[C@]1(C[C@H]2C(=O)N[C@]4(C(=O)NS(=O)(=O)C5(C)CC5)C[C@H]4/C=C\CCCCC[C@H](NC(=O)OCC(C)C)C(=O)N2C1)O3 [Example 154, 2-methylpropyl [(2R,6S,12Z,13aS,14aR,16aS)-9′-methoxy-14a-{[(1-methylcyclopropyl)sulfonyl]carbamoyl}-5,16-dioxo-5′-(propan-2-yl)-1,1′,2′,5,6,7,8,9,10,11,13a,14,14a,15,16,16a-hexadecahydrospiro[cyclopropa[e]pyrrolo[1,2-a][1,4]diazacyclopentadecine-2,3′-pyrano[2,3-c]quinolin]-6-yl]carbamate]
- EC50 ([1]; genotype 1b replicon): 1 nM
- IC50 [2, 3]: 0.014 nM

SMILES: Cc1nc2ccccc2c2c1O[C@]1(CC2)C[C@H]2C(=O)N[C@]3(C(=O)NS(=O)(=O)C4(C)CC4)C[C@H]3/C=C\CCCCC[C@H](NC(=O)NC3CCCCC3)C(=O)N2C1 [Example 285, (2R,6S,12Z,13aS,14aR,16aS)-6-[(cyclohexylcarbamoyl)amino]-5′-methyl-N-[(1-methylcyclopropyl)sulfonyl]-5,16-dioxo-1,1′,2′,6,7,8,9,10,11,13a,14,15,16,16a-tetradecahydrospiro[cyclopropa[e]pyrrolo[1,2-a][1,4]diazacyclopentadecine-2,3′-pyrano[2,3-c]quinoline]-14a(5H)-carboxamide]
- EC50 ([1]; genotype 1b replicon, HCOOH salt): 10.3 nM
- IC50 ([2]; IC50 [gt-1b] (nM), NS3/4A genotype 1b, enzyme 0.2 nM, HCOOH salt): 0.002 nM

SMILES: CC(C)OC(=O)N[C@H]1CCCCC/C=C\[C@@H]2C[C@@]2(C(=O)NS(=O)(=O)C2(C)CC2)NC(=O)[C@@H]2C[C@]3(CCc4c(c(C(F)F)nc5ccccc45)O3)CN2C1=O [Example 317, propan-2-yl [(2R,6S,12Z,13aS,14aR,16aS)-5′-(difluoromethyl)-14a-{[(1-methylcyclopropyl)sulfonyl]carbamoyl}-5,16-dioxo-1,1′,2′,5,6,7,8,9,10,11,13a,14,14a,15,16,16a-hexadecahydrospiro[cyclopropa[e]pyrrolo[1,2-a][1,4]diazacyclopentadecine-2,3′-pyrano[2,3-c]quinolin]-6-yl]carbamate]
- EC50 ([1]; genotype 1b replicon): 3.25 nM
- IC50 [2, 3]: 0.023 nM

SMILES: COCC1(S(=O)(=O)NC(=O)[C@@]23C[C@H]2/C=C\CCCCC[C@H](NC(=O)OC2(C)CCC2)C(=O)N2C[C@@]4(CCc5c(c(C(F)(F)F)nc6ccc(OC)cc56)O4)C[C@H]2C(=O)N3)CC1 [Example 495, 1-methylcyclobutyl [(2R,6S,12Z,13aS,14aR,16aS)-9′-methoxy-14a-({[1-(methoxymethyl)cyclopropyl]sulfonyl}carbamoyl)-5,16-dioxo-5′-(trifluoromethyl)-1,1′,2′,5,6,7,8,9,10,11,13a,14,14a,15,16,16a-hexadecahydrospiro[cyclopropa[e]pyrrolo[1,2-a][1,4]diazacyclopentadecine-2,3′-pyrano[2,3-c]quinolin]-6-yl]carbamate]
- EC50 ([1]; HCV replicon, genotype 1b): 1.45 nM
- IC50 [2, 6]: 0.007 nM

SMILES: CC(C)COC(=O)N[C@H]1CCCCC/C=C\[C@@H]2C[C@@]2(C(=O)NS(=O)(=O)C2(C)CC2)NC(=O)[C@@H]2C[C@]3(CCc4c(c(C(F)(F)F)nc5ccc(OCF)cc45)O3)CN2C1=O [Example 491, 2-methylpropyl [(2R,6S,12Z,13aS,14aR,16aS)-9′-(fluoromethoxy)-14a-{[(1-methylcyclopropyl)sulfonyl]carbamoyl}-5,16-dioxo-5′-(trifluoromethyl)-1,1′,2′,5,6,7,8,9,10,11,13a,14,14a,15,16,16a-hexadecahydrospiro[cyclopropa[e]pyrrolo[1,2-a][1,4]diazacyclopentadecine-2,3′-pyrano[2,3-c]quinolin]-6-yl]carbamate]
- EC50 [1, 4]: 2.53 nM
- IC50 [2, 5]: 0.003 nM

SMILES: COc1ccc2nc(C)c3c(c2c1)[C@H](F)C[C@]1(C[C@H]2C(=O)N[C@]4(C(=O)NS(=O)(=O)C5(C)CC5)C[C@H]4/C=C\CCCCC[C@H](NC(=O)OCC(C)(C)C)C(=O)N2C1)O3 [Example 371, 2,2-dimethylpropyl [(1′R,2S,6S,12Z,13aS,14aR,16aS)-1′-fluoro-9′-methoxy-5′-methyl-14a-{[(1-methylcyclopropyl)sulfonyl]carbamoyl}-5,16-dioxo-1,1′,2′,5,6,7,8,9,10,11,13a,14,14a,15,16,16a-hexadecahydrospiro[cyclopropa[e]pyrrolo[1,2-a][1,4]diazacyclopentadecine-2,3′-pyrano[2,3-c]quinolin]-6-yl]carbamate]
- EC50 [1, 4]: 1.27 nM
- IC50 [2, 5]: 0.015 nM

SMILES: CCc1ccc2nc(C)c3c(c2c1)CC[C@]1(C[C@H]2C(=O)N[C@]4(C(=O)NS(=O)(=O)C5(C)CC5)C[C@H]4/C=C\CCCCC[C@H](NC(=O)OC(C)(C)C)C(=O)N2C1)O3 [Example 313, tert-butyl [(2R,6S,12Z,13aS,14aR,16aS)-9′-ethyl-5′-methyl-14a-{[(1-methylcyclopropyl)sulfonyl]carbamoyl}-5,16-dioxo-1,1′,2′,5,6,7,8,9,10,11,13a,14,14a,15,16,16a-hexadecahydrospiro[cyclopropa[e]pyrrolo[1,2-a][1,4]diazacyclopentadecine-2,3′-pyrano[2,3-c]quinolin]-6-yl]carbamate]
- EC50 ([1]; genotype 1b replicon): 2.87 nM
- IC50 [2, 3]: 0.016 nM

SMILES: COc1ccc2nc(C3CC3)c3c(c2c1)[C@H](F)C[C@]1(C[C@H]2C(=O)N[C@]4(C(=O)NS(=O)(=O)C5(C)CC5)C[C@H]4/C=C\CCCCC[C@H](NC(=O)OC(C)C)C(=O)N2C1)O3 [Example 456, propan-2-yl [(1′R,2S,6S,12Z,13aS,14aR,16aS)-5′-cyclopropyl-1′-fluoro-9′-methoxy-14a-{[(1-methylcyclopropyl)sulfonyl]carbamoyl}-5,16-dioxo-1,1′,2′,5,6,7,8,9,10,11,13a,14,14a,15,16,16a-hexadecahydrospiro[cyclopropa[e]pyrrolo[1,2-a][1,4]diazacyclopentadecine-2,3′-pyrano[2,3-c]quinolin]-6-yl]carbamate]
- EC50 [1, 4]: 1.41 nM
- IC50 [2, 5]: 0.021 nM

SMILES: Cc1nc2ccccc2c2c1O[C@]1(CC2)C[C@H]2C(=O)N[C@]3(C(=O)NS(=O)(=O)C4(C)CC4)C[C@H]3/C=C\CCCCC[C@H](N)C(=O)N2C1 [Example 344, (2R,6S,12Z,13aS,14aR,16aS)-6-amino-5′-methyl-N-[(1-methylcyclopropyl)sulfonyl]-5,16-dioxo-1,1′,2′,6,7,8,9,10,11,13a,14,15,16,16a-tetradecahydrospiro[cyclopropa[e]pyrrolo[1,2-a][1,4]diazacyclopentadecine-2,3′-pyrano[2,3-c]quinoline]-14a(5H)-carboxamide]
- EC50 ([1]; genotype 1b replicon): 662 nM
- IC50 [2, 3]: 0.685 nM

SMILES: Cc1nc2ccc(OCC(F)(F)F)cc2c2c1O[C@]1(CC2)C[C@H]2C(=O)N[C@]3(C(=O)NS(=O)(=O)C4(C)CC4)C[C@H]3/C=C\CCCCC[C@H](NC(=O)OC(C)(C)C)C(=O)N2C1 [Example 296, tert-butyl [(2R,6S,12Z,13aS,14aR,16aS)-5′-methyl-14a-{[(1-methylcyclopropyl)sulfonyl]carbamoyl}-5,16-dioxo-9′-(2,2,2-trifluoroethoxy)-1,1′,2′,5,6,7,8,9,10,11,13a,14,14a,15,16,16a-hexadecahydrospiro[cyclopropa[e]pyrrolo[1,2-a][1,4]diazacyclopentadecine-2,3′-pyrano[2,3-c]quinolin]-6-yl]carbamate]
- EC50 ([1]; genotype 1b replicon): 2.55 nM
- IC50 [2, 3]: 0.009 nM

SMILES: CCc1nc2ccc(OC)cc2c2c1O[C@]1(CC2)C[C@H]2C(=O)N[C@]3(C(=O)NS(=O)(=O)C4(C)CC4)C[C@H]3/C=C\CCCCC[C@H](NC(=O)c3sccc3C)C(=O)N2C1 [Example 480, (2R,6S,12Z,13aS,14aR,16aS)-5′-ethyl-9′-methoxy-N-[(1-methylcyclopropyl)sulfonyl]-6-{[(3-methylthiophen-2-yl)carbonyl]amino}-5,16-dioxo-1,1′,2′,6,7,8,9,10,11,13a,14,15,16,16a-tetradecahydrospiro[cyclopropa[e]pyrrolo[1,2-a][1,4]diazacyclopentadecine-2,3′-pyrano[2,3-c]quinoline]-14a(5H)-carboxamide]
- EC50 ([1]; HCV replicon, genotype 1b): 0.266 nM
- IC50 [2, 6]: 0.006 nM
